Assay [1] deals with T1, Vitamin D3 receptor (Bos taurus) (UniProt Q28037).
T1 sequence (whole entry): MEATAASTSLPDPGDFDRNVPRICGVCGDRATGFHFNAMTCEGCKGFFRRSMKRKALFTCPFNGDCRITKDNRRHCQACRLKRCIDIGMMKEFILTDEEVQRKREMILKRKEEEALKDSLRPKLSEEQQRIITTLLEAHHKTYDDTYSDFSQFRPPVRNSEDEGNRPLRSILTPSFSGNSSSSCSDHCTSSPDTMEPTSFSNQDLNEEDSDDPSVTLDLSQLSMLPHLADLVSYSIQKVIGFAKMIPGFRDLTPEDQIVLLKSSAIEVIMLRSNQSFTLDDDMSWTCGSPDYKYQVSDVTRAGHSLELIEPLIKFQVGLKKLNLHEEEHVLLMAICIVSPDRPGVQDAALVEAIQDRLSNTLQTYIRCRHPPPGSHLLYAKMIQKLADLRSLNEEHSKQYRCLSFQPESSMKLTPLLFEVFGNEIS
Put plainly: Binding affinity to bovine thymus VDR relative to 1alpha,25-dihydroxyvitamin D3.

For assay [2], the target named is T1, Vitamin D3 receptor (Bos taurus). Put plainly: Displacement of [3H]-1alpha,25 dihydroxyvitamin D3 from bovine thymus VDR after 60 mins relative to 1alpha,25-dihydroxyvitamin D3.
In assay [3] the target is T2, Vitamin D3 receptor (Homo sapiens) (UniProt P11473).
T2 sequence (whole entry): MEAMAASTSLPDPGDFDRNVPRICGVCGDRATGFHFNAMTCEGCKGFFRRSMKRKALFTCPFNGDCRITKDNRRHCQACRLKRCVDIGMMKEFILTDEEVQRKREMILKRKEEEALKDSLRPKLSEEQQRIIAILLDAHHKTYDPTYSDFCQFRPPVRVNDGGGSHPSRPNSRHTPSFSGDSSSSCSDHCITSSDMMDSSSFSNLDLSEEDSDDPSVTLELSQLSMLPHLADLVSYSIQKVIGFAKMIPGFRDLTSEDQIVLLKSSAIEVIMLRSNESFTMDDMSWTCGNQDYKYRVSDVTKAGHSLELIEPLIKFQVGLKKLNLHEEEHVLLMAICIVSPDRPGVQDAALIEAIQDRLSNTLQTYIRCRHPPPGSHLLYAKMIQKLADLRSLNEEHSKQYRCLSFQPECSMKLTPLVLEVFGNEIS
Put plainly: Binding affinity to VDR (unknown origin) relative to 1alpha,25-dihydroxyvitamin D3.

As to `C=C1/C(=C\C=C2/CCC[C@]3(C)[C@@H]([C@H](C)CCCC(C)(C)O)CC[C@@H]23)C[C@@H](O)[C@@H](C)[C@@H]1O`, in assay [1], the fold change (FC) was 13.

`C=C1/C(=C\C=C2/CCC[C@]3(C)[C@@H]([C@H](C)CCCC(C)(C)O)CC[C@@H]23)C[C@H](O)C2(COC2)[C@H]1O`: in assay [2], the fold change (FC) amounted to 0.001.

For `C=C1/C(=C\C=C2/CCC[C@]3(C)[C@@H]([C@H](C)CCCC(C)(C)O)CC[C@@H]23)C[C@@H](O)C2(COC2)[C@@H]1O`, in assay [2], the fold change (FC) was 5.

Consider `C=C1/C(=C\C=C2/CCC[C@]3(C)[C@@H]([C@H](C)CCCC(C)(C)O)CC[C@@H]23)C[C@@H](O)C[C@@H]1O`, for which the fold change (FC) in assay [2] was found to be 100.

As to `C=C1/C(=C\C=C2/CCC[C@]3(C)[C@@H]([C@H](C)CCCC(C)(C)O)CC[C@@H]23)C[C@@H](O)C2(COC2)[C@H]1O`, the fold change (FC) in assay [2] was 0.002.

For `C=C1/C(=C\C=C2/CCC[C@]3(C)[C@@H]([C@H](C)CCCC(C)(C)O)CC[C@@H]23)C[C@H](O)C2(COC2)[C@@H]1O`, the fold change (FC) in assay [2] was 0.04.

For the molecule `C=C1/C(=C\C=C2/CCC[C@]3(C)[C@@H]([C@H](C)CCCC(C)(C)O)CC[C@@H]23)C[C@@H](O)[C@H](C)[C@@H]1O`, the fold change (FC) in assay [1] came to 400.

Regarding `C=C1/C(=C\C=C2/CCC[C@]3(C)[C@@H]([C@H](C)CCCC(C)(C)O)CC[C@@H]23)C[C@@H](O)C(C)(C)[C@@H]1O`, the fold change (FC) in assay [3] came out at 3.

These data come from ChEMBL document CHEMBL2413049, “Design and synthesis of novel 1,25-dihydroxyvitamin D3 analogues having a spiro-oxetane fused at the C2 position in the A-ring” (Bioorg Med Chem, 2013).
